{"source": "ChEMBL document CHEMBL5226282", "about": "“TLR2 Agonistic Small Molecules: Detailed Structure-Activity Relationship, Applications, and Future Prospects” (J Med Chem, 2021)", "data": [{"molecular_target": "Toll-like receptor 2 (Homo sapiens, UniProt O60603)", "sequence (O60603 whole entry)": "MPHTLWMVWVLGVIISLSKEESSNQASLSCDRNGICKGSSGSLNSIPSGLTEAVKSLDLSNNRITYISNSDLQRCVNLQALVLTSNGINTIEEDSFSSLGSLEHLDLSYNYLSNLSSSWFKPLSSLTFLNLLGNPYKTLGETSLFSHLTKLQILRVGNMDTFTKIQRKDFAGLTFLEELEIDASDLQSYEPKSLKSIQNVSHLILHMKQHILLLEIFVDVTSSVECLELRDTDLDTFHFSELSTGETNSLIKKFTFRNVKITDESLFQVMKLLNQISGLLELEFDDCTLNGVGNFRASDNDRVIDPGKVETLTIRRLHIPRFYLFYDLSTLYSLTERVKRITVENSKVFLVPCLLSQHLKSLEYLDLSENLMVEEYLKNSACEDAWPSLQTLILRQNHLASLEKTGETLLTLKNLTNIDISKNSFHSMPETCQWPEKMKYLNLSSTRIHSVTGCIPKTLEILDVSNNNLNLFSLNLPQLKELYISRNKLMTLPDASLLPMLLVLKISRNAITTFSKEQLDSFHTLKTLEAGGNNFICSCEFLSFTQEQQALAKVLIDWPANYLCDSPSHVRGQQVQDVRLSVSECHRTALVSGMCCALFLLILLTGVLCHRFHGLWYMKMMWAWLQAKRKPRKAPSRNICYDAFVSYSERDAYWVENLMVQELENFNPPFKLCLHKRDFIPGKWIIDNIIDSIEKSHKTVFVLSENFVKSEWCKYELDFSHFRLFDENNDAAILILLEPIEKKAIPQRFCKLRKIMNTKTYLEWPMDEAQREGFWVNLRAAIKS", "assay": "Agonist activity at TLR2 (unknown origin)", "details": "not given", "units": {"EC50": "nM"}, "values": [{"smiles": "CCCCCCCCCCCCCCCC(=O)N[C@@H](SC[C@@H](COC(=O)CCCCCCCCCCCCCCC)OC(=O)CCCCCCCCCCCCCCC)C(=O)N[C@@H](CO)C(=O)N[C@@H](CCCCN)C(=O)N[C@@H](CCCCN)C(=O)N[C@@H](CCCCN)C(=O)N[C@@H](CCCCN)C(=O)N[C@@H](CO)C(=O)N[C@@H](CC(C)C)C(=O)N[C@@H](CC(C)C)C(=O)N[C@@H](CCSC)C(=O)N[C@@H](Cc1c[nH]c2ccccc12)C(=O)N[C@H](C(=O)N[C@H](C(=O)N[C@@H](CCC(N)=O)C(=O)N[C@H](C(=O)O)C(C)C)[C@@H](C)O)[C@@H](C)CC", "EC50": 23000}, {"smiles": "CCCCCCCCCCCCCCCC(=O)OCC[C@H](CS[C@H](NC(C)=O)C(=O)N[C@@H](CO)C(=O)N[C@@H](CCCCN)C(=O)N[C@@H](CCCCN)C(=O)N[C@@H](CCCCN)C(=O)N[C@@H](CCCCN)C(=O)N[C@@H](CO)C(=O)N[C@@H](CC(C)C)C(=O)N[C@@H](CC(C)C)C(=O)N[C@@H](CCSC)C(=O)N[C@@H](Cc1c[nH]c2ccccc12)C(=O)N[C@H](C(=O)N[C@H](C(=O)N[C@@H](CCC(N)=O)C(=O)N[C@H](C(=O)O)C(C)C)[C@@H](C)O)[C@@H](C)CC)OC(=O)CCCCCCCCCCCCCCC", "EC50": 1160}, {"smiles": "CCCCCCCCCCCCCCCC(=O)OCCCCC[C@H](CS[C@H](N)C(=O)N[C@@H](CO)C(=O)N[C@@H](CCCCN)C(=O)N[C@@H](CCCCN)C(=O)N[C@@H](CCCCN)C(=O)N[C@@H](CCCCN)C(=O)N[C@@H](CO)C(=O)N[C@@H](CC(C)C)C(=O)N[C@@H](CC(C)C)C(=O)N[C@@H](CCSC)C(=O)N[C@@H](Cc1c[nH]c2ccccc12)C(=O)N[C@H](C(=O)N[C@H](C(=O)N[C@@H](CCC(N)=O)C(=O)N[C@H](C(=O)O)C(C)C)[C@@H](C)O)[C@@H](C)CC)OC(=O)CCCCCCCCCCCCCCC", "EC50": 4440}, {"smiles": "CCCCCCCCCCCCCCCC(=O)OCC[C@@H](CS[C@H](NC(C)=O)C(=O)N[C@@H](CO)C(=O)N[C@@H](CCCCN)C(=O)N[C@@H](CCCCN)C(=O)N[C@@H](CCCCN)C(=O)N[C@@H](CCCCN)C(=O)N[C@@H](CO)C(=O)N[C@@H](CC(C)C)C(=O)N[C@@H](CC(C)C)C(=O)N[C@@H](CCSC)C(=O)N[C@@H](Cc1c[nH]c2ccccc12)C(=O)N[C@H](C(=O)N[C@H](C(=O)N[C@@H](CCC(N)=O)C(=O)N[C@H](C(=O)O)C(C)C)[C@@H](C)O)[C@@H](C)CC)OC(=O)CCCCCCCCCCCCCCC", "EC50": 17400}, {"smiles": "CCCCCCCCCCCCCCCC(=O)OC[C@H](CS[C@H](NC(C)=O)C(=O)N[C@@H](CO)C(=O)N[C@@H](CCCCN)C(=O)N[C@@H](CCCCN)C(=O)N[C@@H](CCCCN)C(=O)N[C@@H](CCCCN)C(=O)N[C@@H](CO)C(=O)N[C@@H](CC(C)C)C(=O)N[C@@H](CC(C)C)C(=O)N[C@@H](CCSC)C(=O)N[C@@H](Cc1c[nH]c2ccccc12)C(=O)N[C@H](C(=O)N[C@H](C(=O)N[C@@H](CCC(N)=O)C(=O)N[C@H](C(=O)O)C(C)C)[C@@H](C)O)[C@@H](C)CC)OC(=O)CCCCCCCCCCCCCCC", "EC50": 281}, {"smiles": "CCCCCCCCCCCCCCCC(=O)OCCCC[C@H](CS[C@H](N)C(=O)N[C@@H](CO)C(=O)N[C@@H](CCCCN)C(=O)N[C@@H](CCCCN)C(=O)N[C@@H](CCCCN)C(=O)N[C@@H](CCCCN)C(=O)N[C@@H](CO)C(=O)N[C@@H](CC(C)C)C(=O)N[C@@H](CC(C)C)C(=O)N[C@@H](CCSC)C(=O)N[C@@H](Cc1c[nH]c2ccccc12)C(=O)N[C@H](C(=O)N[C@H](C(=O)N[C@@H](CCC(N)=O)C(=O)N[C@H](C(=O)O)C(C)C)[C@@H](C)O)[C@@H](C)CC)OC(=O)CCCCCCCCCCCCCCC", "EC50": 304}, {"smiles": "CCCCCCCCCCCCCCCC(=O)OCC[C@H](CS[C@H](N)C(=O)N[C@@H](CO)C(=O)N[C@@H](CCCCN)C(=O)N[C@@H](CCCCN)C(=O)N[C@@H](CCCCN)C(=O)N[C@@H](CCCCN)C(=O)N[C@@H](CO)C(=O)N[C@@H](CC(C)C)C(=O)N[C@@H](CC(C)C)C(=O)N[C@@H](CCSC)C(=O)N[C@@H](Cc1c[nH]c2ccccc12)C(=O)N[C@H](C(=O)N[C@H](C(=O)N[C@@H](CCC(N)=O)C(=O)N[C@H](C(=O)O)C(C)C)[C@@H](C)O)[C@@H](C)CC)OC(=O)CCCCCCCCCCCCCCC", "EC50": 609}, {"smiles": "CCCCCCCCCCCCCCCC(=O)OC[C@H](CS[C@H](N)C(=O)N[C@@H](CO)C(=O)N[C@@H](CCCCN)C(=O)N[C@@H](CCCCN)C(=O)N[C@@H](CCCCN)C(=O)N[C@@H](CCCCN)C(=O)N[C@@H](CO)C(=O)N[C@@H](CC(C)C)C(=O)N[C@@H](CC(C)C)C(=O)N[C@@H](CCSC)C(=O)N[C@@H](Cc1c[nH]c2ccccc12)C(=O)N[C@H](C(=O)N[C@H](C(=O)N[C@@H](CCC(N)=O)C(=O)N[C@H](C(=O)O)C(C)C)[C@@H](C)O)[C@@H](C)CC)OC(=O)CCCCCCCCCCCCCCC", "EC50": 468}, {"smiles": "CCCCCCCCCCCCCCCC(=O)OCC[C@@H](CS[C@H](N)C(=O)N[C@@H](CO)C(=O)N[C@@H](CCCCN)C(=O)N[C@@H](CCCCN)C(=O)N[C@@H](CCCCN)C(=O)N[C@@H](CCCCN)C(=O)N[C@@H](CO)C(=O)N[C@@H](CC(C)C)C(=O)N[C@@H](CC(C)C)C(=O)N[C@@H](CCSC)C(=O)N[C@@H](Cc1c[nH]c2ccccc12)C(=O)N[C@H](C(=O)N[C@H](C(=O)N[C@@H](CCC(N)=O)C(=O)N[C@H](C(=O)O)C(C)C)[C@@H](C)O)[C@@H](C)CC)OC(=O)CCCCCCCCCCCCCCC", "EC50": 46200}]}, {"molecular_target": "Toll-like receptor 2 (Mus musculus) (UniProt Q9QUN7)", "sequence (Q9QUN7 whole entry)": "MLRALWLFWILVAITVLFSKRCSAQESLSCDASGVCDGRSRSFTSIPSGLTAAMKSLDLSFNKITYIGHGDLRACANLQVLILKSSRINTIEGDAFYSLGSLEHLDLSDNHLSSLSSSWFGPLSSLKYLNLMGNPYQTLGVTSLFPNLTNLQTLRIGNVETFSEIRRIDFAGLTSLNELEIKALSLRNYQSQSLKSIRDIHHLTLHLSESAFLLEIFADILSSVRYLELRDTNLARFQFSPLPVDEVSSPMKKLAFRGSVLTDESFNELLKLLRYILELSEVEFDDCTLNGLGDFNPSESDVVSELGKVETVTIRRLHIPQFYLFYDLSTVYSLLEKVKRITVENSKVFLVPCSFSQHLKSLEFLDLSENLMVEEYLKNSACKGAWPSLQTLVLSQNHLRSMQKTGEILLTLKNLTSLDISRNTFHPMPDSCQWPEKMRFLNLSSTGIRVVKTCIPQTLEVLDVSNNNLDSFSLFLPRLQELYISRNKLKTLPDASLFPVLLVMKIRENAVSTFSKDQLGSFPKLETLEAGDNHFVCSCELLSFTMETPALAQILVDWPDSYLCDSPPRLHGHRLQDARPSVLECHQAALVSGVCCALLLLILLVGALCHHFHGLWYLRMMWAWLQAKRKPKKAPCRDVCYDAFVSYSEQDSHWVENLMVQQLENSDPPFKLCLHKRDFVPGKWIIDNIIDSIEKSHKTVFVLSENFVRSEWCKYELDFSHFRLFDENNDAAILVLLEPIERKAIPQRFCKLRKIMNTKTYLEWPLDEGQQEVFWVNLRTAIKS", "assay": "(§1) Agonist activity at mouse TLR2 transfected in HEK293 cells relative to control", "format": "cell-based", "parameters": "concentration or dose not given beside the values", "details": "not given", "units": {"Activity": "%"}, "values": [{"smiles": "CCCCCCCCCC(=O)N[C@H](CSCC(COC(=O)CC)OC(=O)CC)C(=O)N[C@@H](CO)C(=O)N[C@@H](CCCCN)C(=O)N[C@@H](CCCCN)C(=O)N[C@@H](CCCCN)C(=O)N[C@@H](CCCCN)C(=O)O", "note": "(stereo partly drawn)", "Activity": 26}, {"smiles": "CCCCCCCCCC(=O)N[C@H](CSCC(COC(=O)CCCCC)OC(=O)CCCCC)C(=O)N[C@@H](CO)C(=O)N[C@@H](CCCCN)C(=O)N[C@@H](CCCCN)C(=O)N[C@@H](CCCCN)C(=O)N[C@@H](CCCCN)C(=O)O", "note": "(stereo partly drawn)", "Activity": "< 10"}, {"smiles": "CCCCCC(=O)OCC(CSC[C@@H](NC(=O)Cc1ccccc1)C(=O)N[C@@H](CO)C(=O)N[C@@H](CCCCN)C(=O)N[C@@H](CCCCN)C(=O)N[C@@H](CCCCN)C(=O)N[C@@H](CCCCN)C(=O)O)OC(=O)CCCCC", "note": "(stereo partly drawn)", "Activity": 0}, {"smiles": "CCCCCCCCCC(=O)N[C@H](CSCC(COC(=O)CCCCCCC)OC(=O)CCCCCCC)C(=O)N[C@@H](CO)C(=O)N[C@@H](CCCCN)C(=O)N[C@@H](CCCCN)C(=O)N[C@@H](CCCCN)C(=O)N[C@@H](CCCCN)C(=O)O", "note": "(stereo partly drawn)", "Activity": 11}, {"smiles": "CCCCCCCCCCCCCCCC(=O)N[C@H](CSCC(COC(=O)CCCCCCC)OC(=O)CCCCCCC)C(=O)N[C@@H](CO)C(=O)N[C@@H](CCCCN)C(=O)N[C@@H](CCCCN)C(=O)N[C@@H](CCCCN)C(=O)N[C@@H](CCCCN)C(=O)O", "note": "(stereo partly drawn)", "Activity": 0}, {"smiles": "CCCCCCCCCCCCCCCC(=O)N[C@H](CSCC(COC(=O)CCCCC)OC(=O)CCCCC)C(=O)N[C@@H](CO)C(=O)N[C@@H](CCCCN)C(=O)N[C@@H](CCCCN)C(=O)N[C@@H](CCCCN)C(=O)N[C@@H](CCCCN)C(=O)O", "note": "(stereo partly drawn)", "Activity": 0}]}, {"molecular_target": "Toll-like receptor 2 (Mus musculus) (UniProt Q9QUN7)", "assay": "as §1", "format": "cell-based", "parameters": "concentration or dose not given beside the values", "details": "filed as agonist", "units": {"Activity": "%"}, "values": [{"smiles": "CCCCCCCCCCCCCCCC(=O)N[C@H](CSCC(COC(=O)CCCCCCCCCCCCCCC)OC(=O)CCCCCCCCCCCCCCC)C(=O)N[C@@H](CO)C(=O)N[C@@H](CCCCN)C(=O)N[C@@H](CCCCN)C(=O)N[C@@H](CCCCN)C(=O)N[C@@H](CCCCN)C(=O)O", "note": "(stereo partly drawn)", "Activity": 51}, {"smiles": "CCCCCCCCCCCCCC(=O)N[C@H](CSCC(COC(=O)CC)OC(=O)CC)C(=O)N[C@@H](CO)C(=O)N[C@@H](CCCCN)C(=O)N[C@@H](CCCCN)C(=O)N[C@@H](CCCCN)C(=O)N[C@@H](CCCCN)C(=O)O", "note": "(stereo partly drawn)", "Activity": 51}, {"smiles": "CCCCCCCCCCCCCC(=O)N[C@H](CSCC(COC(=O)CCCCCCC)OC(=O)CCCCCCC)C(=O)N[C@@H](CO)C(=O)N[C@@H](CCCCN)C(=O)N[C@@H](CCCCN)C(=O)N[C@@H](CCCCN)C(=O)N[C@@H](CCCCN)C(=O)O", "note": "(stereo partly drawn)", "Activity": 51}]}]}
